Experimental data from US20100311714A1, “1H-IMIDAZO[4,5-c]QUINOLINONE COMPOUNDS” (priority 2009, published 2010).

What was measured:
[1] = target: T1, PI3K beta (Homo sapiens, UniProt P42338); assay: PI3K beta kinase assay (Kinase-Glo luminescence); assay type: biochemical; conditions: read-out: EPK_PI3Kbeta/IC50
T1 construct: for the full-length p110-b subunit are generated and fused by overlapping PCR; His tag (C); made in house; host or cells: baculovirus BV949; Tn5 (Trichoplusia ni) or TiniPro insect cells
Method: (§1) In a more preferred assay, the kinase reaction is performed in a final volume of 10 μL per well of a low volume non binding CORNING, 384 well black plate (Cat. No. #3676). The final concentrations of ATP and phosphatidyl inositol (PI) in the assay are 1 μM and 10 μg/mL respectively. The reaction is started by the addition of ATP.
(§2) The components of the assay are added per well as follows:
(§3) 50 nL test compounds in 90% DMSO per well, in columns 1-20, 8 concentrations (⅓ and 1/3.33 serial dilution step) in single. • Low control: […] of 90% DMSO in half the wells of columns 23-24 (0.45% in final). • High control: 50 nL of reference compound (e.g. compound of Example 7 in WO 2006/122806) in the other half of columns 23-24 (2.5 μM in final). • Standard: 50 nL of reference compound as just mentioned diluted as the test compounds in columns 21-22 • 20 mL ‘buffer’ are prepared per assay: • 200 μL of 1M TRIS HCl pH7.5 (10 mM in final) • 60 μL of 1M MgCl2 (3 mM in final) • 500 μL of 2M NaCl (50 mM in final) • 100 μL of 10% CHAPS (0.05% in final) • 200 μL of 100 mM DTT (1 mM in final) • 18.94 mL of nanopure water • 10 mL ‘PI’ are prepared per assay: • 200 μL of 1 mg/ml L-alpha-Phosphatidylinositol (Liver Bovine, Avanti Polar Lipids Cat. No. 840042C MW=909.12) prepared in 3% OctylGlucoside (10 μg/ml in final) • 9.8 mL of ‘buffer’ • 10 mL ‘ATP’ are prepared per assay: • 6.7 μL of 3 mM stock of ATP giving a final concentration of 1 μM per well • 10 mL of ‘buffer’ • 2.5 mL of each PI3K construct are prepared per assay in ‘PI’ with the following final concentration: • 10 nM PI3K alfa EMV B1075 • 25 nM beta EMV BV949 • 10 nM delta EMV BV1060 • 150 nM gamma EMV BV950 • 5 μL of ‘PI/PI3K’ are added per well. • 5 μl ‘ATP’ are added per well to start the reaction. • The plates are then incubated at room temperature for 60 minutes (alfa, beta, delta) or 120 minutes (gamma). • The reaction is terminated by the addition of 10 μL Kinase-Glo (Promega Cat. No. #6714). • The assay plates are read after 10 minutes in Synergy 2 reader (BioTek, Vermont USA) with an integration time of 100 milliseconds and sensitivity set to 191. • Output: The High control is around 60′000 counts and the Low control is 30′000 or lower • This luminescence assay gives a useful Z′ ratio between 0.4 and 0.7
PI3Kβ BV-949 p85(iSH2)-Gly linker-r 110b(full-length)-C-term His Tag
PI3K beta is purified in two chromatographic steps: immobilized metal affinity chromatography (IMAC) on a Ni Sepharose resin (GE Healthcare) and gel filtration (GFC) utilizing a Superdex 200 26/60 column (GE Healthcare). All buffers are chilled to 4° C. and lysis is performed chilled on ice. Column fractionation is performed rapidly at room temperature.
(§4) IC50 is determined by a four parameter curve fitting routine that comes along with “excel fit”. A 4 Parameter logistic equation is used to calculate IC50 values (IDBS XLfit) of the percentage inhibition of each compound at 8 concentrations (usually 10, 3.0, 1.0, 0.3, 0.1, 0.030, 0.010 and 0.003 μM). Alternatively, IC50 values are calculated using idbsXLfit model 204, which is a 4 parameter logistic model.

[2] = target: T2, PI3K delta (Homo sapiens, UniProt O00329); assay: PI3K delta kinase assay (Kinase-Glo luminescence); assay type: biochemical; conditions: read-out: EPK_PI3Kdelta/IC50
T2 construct: for the full-length p110-d subunit are generated and fused by overlapping PCR; His tag (C); made in house; host or cells: baculovirus BV1060; Tn5 (Trichoplusia ni) or TiniPro insect cells
Method: as §1, §2, §3
PI3Kδ BV-1060 p85(iSH2)-Gly Linker-p110d(Full-Length)-C-Term His Tag
PI3K delta is purified in three chromatographic steps: immobilized metal affinity chromatography on a Ni Sepharose resin (GE Healthcare), gel filtration utilizing a Superdex 200 26/60 column (GE Healthcare), and finally a anion exchange step on a Q-HP column (GE Healthcare). All buffers are chilled to 4° C. and lysis is performed chilled on ice. Column fractionation is performed rapidly at room temperature. Typically frozen insect cells are lysed in a hypertonic lysis buffer and applied to a prepared IMAC column. The resin is washed with 3-5 column volumes of lysis buffer, followed by 3-5 column volumes wash buffer containing 45 mM imidazole, and the target protein is then eluted with a buffer containing 250 mM imidazole. Fractions are analyzed by Coomassie stained SDS-PAGE gels, and fractions containing the target protein are pooled and applied to a prepared GFC column. Fractions from the GFC column are analyzed by Coomassie stained SDS-PAGE gels, and fractions containing the target protein are pooled. The pool from the GFC column is diluted into a low salt buffer and applied to a prepared Q-HP column. The column is washed with low salt buffer until a stable A280 baseline absorbance is achieved, and eluted using a 20 column volume gradient from 0 mM NaCl to 500 mM NaCl. Again, fractions from the Q-HP column are analyzed by Coomassie stained SDS-PAGE gels, and fractions containing the target protein are pooled. The final pool is dialyzed into a storage buffer containing 50% glycerol and stored at −20° C. The final pool is assayed for activity in the phosphoinostitol kinase assay. […]

[3] = target: T3, mTOR (Homo sapiens, UniProt P42345); assay: Biochemical assay for m-TOR by TR-FRET; conditions: read-out: EPK_mTOR/IC50
T3 construct: purchased Invitrogen Corporation (Carlsbad/Calif., USA) PV4753
Method: Biochemical Assay for m-TOR by TR-FRET.
Assay components are purchased from Invitrogen Corporation (Carlsbad/Calif., USA): GFP-4EBP1 (Cat. No. PV4759), Tb3+-α-p4EBP1 [pThr46] Antibody (Cat. No. PV4757), proprietary TR-FRET dilution buffer (Cat. No. PV3574), mTOR protein (Cat. No. PV4753).
50 nL of compound dilutions (final concentration of 10, 3.0, 1.0, 0.3, 0.1, 0.03, 0.01 and 0.003 μM) are dispensed onto black 384-well low volume non-binding polystyrene (Cat. No. NBS#3676, Corning, Lowell/Mass., USA). Then 5 μL of ATP (8 μM final concentration) and GFP-4EBP1 (400 nM final concentration) with 5 μL mTOR proteins (0.5 nM final concentration) are incubated at rt. The standard reaction buffer for the TR-FRET mTOR assay contained 50 mM HEPES pH 7.5, 10 mM MnCl2, 50 mM NaCl, 1 mM EGTA, 1 mM DTT. Reactions were stopped with 10 μL of a mixture of EDTA containing the Tb3+-α-p4EBP1[pT46] detection Ab (0.5 nM) in TR-FRET dilution buffer (proprietary to IVG). Plates are read 15 mins later in a Synergy2 reader using an integration time of 0.2 seconds and a delay of 0.1 seconds. Control for the 100% inhibition of the kinase reaction is performed by replacing the mTOR kinase by the standard reaction buffer. The control for the 0% inhibition is given by the solvent vehicle of the compounds (90% DMSO in H2O). A standard compound is used as a reference compound and included in all assay plates in the form of 16 dilution points in duplicate.

[4] = target: T4, PI3K alfa (Homo sapiens, UniProt P42336); assay: PI3K alpha kinase assay (Kinase-Glo luminescence); assay type: biochemical; conditions: read-out: EPK_PI3Kalfa/IC50
T4 construct: His tag (C); made in house; host or cells: baculovirus BV1075; Tn5 (Trichoplusia ni) or TiniPro insect cells
Method: as §1, §2, §3
Two different constructs, BV 1052 and BV 1075, are used to generate the PI3 Kinase α proteins for compound screening.
PI3K alpha is purified in three chromatographic steps: immobilized metal affinity chromatography on a Ni Sepharose resin (GE Healthcare, belonging to General Electric Company, Fairfield, Conn., USA), gel filtration utilizing a Superdex 200 26/60 column (GE Healthcare), and finally a cation exchange step on a SP-XL column (GE Healthcare). All buffers are chilled to 4° C. and lysis is performed chilled on ice. Column fractionation is performed rapidly at room temperature.
as §4

T2 sequence (O00329 with tags, fused parts or gaps limits assumed): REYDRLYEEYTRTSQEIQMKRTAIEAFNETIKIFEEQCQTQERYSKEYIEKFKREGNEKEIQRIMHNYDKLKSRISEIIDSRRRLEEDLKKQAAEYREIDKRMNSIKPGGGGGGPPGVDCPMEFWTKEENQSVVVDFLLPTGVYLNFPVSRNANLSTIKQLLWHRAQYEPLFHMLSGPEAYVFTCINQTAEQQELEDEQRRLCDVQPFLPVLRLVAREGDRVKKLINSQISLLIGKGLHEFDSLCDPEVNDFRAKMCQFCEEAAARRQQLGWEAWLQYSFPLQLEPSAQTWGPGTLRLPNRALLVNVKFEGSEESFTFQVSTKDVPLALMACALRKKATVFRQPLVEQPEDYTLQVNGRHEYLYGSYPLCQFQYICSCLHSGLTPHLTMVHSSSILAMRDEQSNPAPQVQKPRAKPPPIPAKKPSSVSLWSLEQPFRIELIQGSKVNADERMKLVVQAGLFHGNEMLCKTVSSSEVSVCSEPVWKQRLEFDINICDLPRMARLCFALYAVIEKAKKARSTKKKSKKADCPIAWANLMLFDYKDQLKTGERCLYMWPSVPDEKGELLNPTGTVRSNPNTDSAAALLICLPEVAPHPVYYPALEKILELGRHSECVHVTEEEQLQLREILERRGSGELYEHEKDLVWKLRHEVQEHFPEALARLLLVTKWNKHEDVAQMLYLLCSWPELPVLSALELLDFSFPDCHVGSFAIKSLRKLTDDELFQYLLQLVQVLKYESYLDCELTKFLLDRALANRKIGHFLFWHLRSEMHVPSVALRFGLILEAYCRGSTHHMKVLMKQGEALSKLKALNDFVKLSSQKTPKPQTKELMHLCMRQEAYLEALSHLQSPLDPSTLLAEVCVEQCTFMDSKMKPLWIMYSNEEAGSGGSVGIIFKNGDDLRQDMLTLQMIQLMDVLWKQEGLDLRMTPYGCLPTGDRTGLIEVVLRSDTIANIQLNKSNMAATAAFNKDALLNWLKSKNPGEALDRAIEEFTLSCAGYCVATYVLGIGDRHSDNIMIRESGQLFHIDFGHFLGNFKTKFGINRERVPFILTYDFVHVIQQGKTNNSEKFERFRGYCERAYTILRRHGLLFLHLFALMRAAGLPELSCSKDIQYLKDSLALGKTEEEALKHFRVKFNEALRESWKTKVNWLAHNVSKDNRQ
T3 sequence (P42345 1360-2549 limits assumed): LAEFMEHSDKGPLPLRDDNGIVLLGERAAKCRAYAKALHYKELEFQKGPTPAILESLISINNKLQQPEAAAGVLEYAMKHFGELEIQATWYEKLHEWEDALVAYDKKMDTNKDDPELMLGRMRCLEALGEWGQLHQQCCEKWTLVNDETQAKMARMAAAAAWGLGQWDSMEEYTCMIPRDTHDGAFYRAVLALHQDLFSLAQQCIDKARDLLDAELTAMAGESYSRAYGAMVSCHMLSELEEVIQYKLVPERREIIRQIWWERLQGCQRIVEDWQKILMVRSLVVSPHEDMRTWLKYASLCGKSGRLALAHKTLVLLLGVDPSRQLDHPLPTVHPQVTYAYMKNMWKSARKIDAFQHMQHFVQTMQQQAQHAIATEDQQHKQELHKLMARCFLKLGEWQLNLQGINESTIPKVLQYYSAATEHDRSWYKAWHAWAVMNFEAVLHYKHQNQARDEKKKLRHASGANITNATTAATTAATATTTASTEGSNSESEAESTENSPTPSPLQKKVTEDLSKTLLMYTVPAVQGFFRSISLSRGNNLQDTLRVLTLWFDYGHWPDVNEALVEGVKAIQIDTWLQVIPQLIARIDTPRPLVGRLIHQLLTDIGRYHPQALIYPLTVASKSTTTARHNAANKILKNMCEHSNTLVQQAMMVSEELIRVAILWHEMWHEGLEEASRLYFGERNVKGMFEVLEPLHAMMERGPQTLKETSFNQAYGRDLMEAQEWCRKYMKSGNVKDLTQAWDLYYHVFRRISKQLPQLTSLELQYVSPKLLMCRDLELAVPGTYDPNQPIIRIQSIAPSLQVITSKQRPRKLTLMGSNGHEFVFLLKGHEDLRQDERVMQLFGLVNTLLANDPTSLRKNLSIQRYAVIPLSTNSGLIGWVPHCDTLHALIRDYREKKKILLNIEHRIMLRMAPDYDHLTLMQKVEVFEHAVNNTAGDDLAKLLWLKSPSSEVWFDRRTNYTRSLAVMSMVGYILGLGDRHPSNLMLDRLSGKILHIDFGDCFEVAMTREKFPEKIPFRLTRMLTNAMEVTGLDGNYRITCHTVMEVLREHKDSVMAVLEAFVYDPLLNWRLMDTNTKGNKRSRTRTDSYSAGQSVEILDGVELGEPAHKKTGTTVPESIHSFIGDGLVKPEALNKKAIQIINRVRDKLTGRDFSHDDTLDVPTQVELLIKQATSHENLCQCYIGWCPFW
T1 sequence (P42338 with tags, fused parts or gaps limits assumed): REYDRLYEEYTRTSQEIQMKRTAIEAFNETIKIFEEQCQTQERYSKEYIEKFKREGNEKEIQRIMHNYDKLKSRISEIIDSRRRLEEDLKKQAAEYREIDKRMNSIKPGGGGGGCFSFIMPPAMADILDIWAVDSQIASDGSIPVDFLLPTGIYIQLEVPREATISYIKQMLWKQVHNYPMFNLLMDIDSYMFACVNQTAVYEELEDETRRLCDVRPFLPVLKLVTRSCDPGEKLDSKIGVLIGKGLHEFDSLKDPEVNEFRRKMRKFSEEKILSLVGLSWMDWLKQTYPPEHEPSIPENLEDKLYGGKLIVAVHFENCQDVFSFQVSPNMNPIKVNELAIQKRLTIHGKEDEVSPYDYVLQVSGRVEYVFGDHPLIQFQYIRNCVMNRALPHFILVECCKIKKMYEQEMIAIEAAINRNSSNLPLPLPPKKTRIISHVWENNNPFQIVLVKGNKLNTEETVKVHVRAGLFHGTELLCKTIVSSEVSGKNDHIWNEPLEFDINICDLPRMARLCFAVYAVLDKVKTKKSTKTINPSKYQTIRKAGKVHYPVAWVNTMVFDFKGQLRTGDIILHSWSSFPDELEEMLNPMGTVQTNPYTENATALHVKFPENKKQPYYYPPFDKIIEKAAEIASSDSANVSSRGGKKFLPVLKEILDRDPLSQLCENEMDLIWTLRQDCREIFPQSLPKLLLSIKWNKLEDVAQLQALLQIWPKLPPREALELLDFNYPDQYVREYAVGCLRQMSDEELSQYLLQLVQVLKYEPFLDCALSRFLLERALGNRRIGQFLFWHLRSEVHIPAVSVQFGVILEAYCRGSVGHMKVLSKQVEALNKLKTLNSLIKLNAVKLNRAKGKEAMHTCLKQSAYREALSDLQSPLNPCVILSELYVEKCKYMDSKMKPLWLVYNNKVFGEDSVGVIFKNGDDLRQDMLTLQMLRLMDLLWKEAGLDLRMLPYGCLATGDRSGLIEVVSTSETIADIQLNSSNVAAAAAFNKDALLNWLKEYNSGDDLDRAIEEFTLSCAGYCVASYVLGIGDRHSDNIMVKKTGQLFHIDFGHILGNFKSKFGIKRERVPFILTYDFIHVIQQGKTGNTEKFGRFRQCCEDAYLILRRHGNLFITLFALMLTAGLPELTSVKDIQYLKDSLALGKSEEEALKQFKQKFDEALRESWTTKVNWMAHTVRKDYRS
T4 sequence (P42336 with tags, fused parts or gaps limits assumed): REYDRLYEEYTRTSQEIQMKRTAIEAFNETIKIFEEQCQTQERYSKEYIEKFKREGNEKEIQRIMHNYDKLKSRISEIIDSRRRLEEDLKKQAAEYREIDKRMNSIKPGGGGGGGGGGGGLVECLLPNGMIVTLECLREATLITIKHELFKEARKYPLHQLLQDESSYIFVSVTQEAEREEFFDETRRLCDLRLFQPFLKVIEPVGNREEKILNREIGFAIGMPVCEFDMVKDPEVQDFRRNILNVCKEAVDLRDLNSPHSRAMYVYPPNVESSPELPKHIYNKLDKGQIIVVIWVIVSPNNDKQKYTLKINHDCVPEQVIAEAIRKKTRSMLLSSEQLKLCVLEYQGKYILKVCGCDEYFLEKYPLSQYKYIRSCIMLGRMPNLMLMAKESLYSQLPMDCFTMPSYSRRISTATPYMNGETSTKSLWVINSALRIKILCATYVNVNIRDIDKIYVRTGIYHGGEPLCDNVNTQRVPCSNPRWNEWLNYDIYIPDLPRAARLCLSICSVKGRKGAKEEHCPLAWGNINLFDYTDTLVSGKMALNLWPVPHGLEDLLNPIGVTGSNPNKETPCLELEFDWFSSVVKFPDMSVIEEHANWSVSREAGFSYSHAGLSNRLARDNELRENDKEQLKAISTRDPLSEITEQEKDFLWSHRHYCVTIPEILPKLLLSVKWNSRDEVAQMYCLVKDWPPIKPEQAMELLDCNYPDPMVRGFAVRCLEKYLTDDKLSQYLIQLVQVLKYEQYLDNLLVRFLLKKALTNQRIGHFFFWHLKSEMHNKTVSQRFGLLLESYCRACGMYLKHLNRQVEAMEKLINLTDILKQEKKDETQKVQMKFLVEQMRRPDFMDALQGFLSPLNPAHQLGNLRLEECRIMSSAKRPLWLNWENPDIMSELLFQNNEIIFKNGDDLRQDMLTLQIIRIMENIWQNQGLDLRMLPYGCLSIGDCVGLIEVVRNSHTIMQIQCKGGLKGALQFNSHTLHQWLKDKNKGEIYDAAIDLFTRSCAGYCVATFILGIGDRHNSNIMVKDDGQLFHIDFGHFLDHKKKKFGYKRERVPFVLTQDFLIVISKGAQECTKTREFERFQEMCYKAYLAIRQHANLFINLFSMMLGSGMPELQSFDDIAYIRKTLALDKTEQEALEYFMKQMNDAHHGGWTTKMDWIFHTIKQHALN

| IC50 [1] [nM] | IC50 [2] [nM] | IC50 [3] [nM] | IC50 [4] [nM] | Compound |
| --- | --- | --- | --- | --- |
| 56 | 25 | 36 | 41 | Cc1nc(C(F)(F)F)ccc1-n1c(=O)n(C)c2cnc3ccc(-c4cnc(N)c(CO)c4)cc3c21 [Example 33.5, 8-(6-Amino-5-hydroxymethyl-pyridin-3-yl)-3-methyl-1-(2-methyl-6-trifluoromethyl-pyridin-3-yl)-1,3-dihydro-imidazo[4,5-c]quinolin-2-one] |
| 48.7 | 10 | 175 | 14 | COc1cc(-c2ccc3ncc4c(c3c2)n(-c2ccc(N3CC(F)(F)C(F)(F)C3)nc2C)c(=O)n4C)cnc1CO [Example 35.3, 8-(6-Hydroxymethyl-5-methoxy-pyridin-3-yl)-3-methyl-1-[2-methyl-6-(3,3,4,4-tetrafluoro-pyrrolidin-1-yl)-pyridin-3-yl]-1,3-dihydro-imidazo[4,5-c]quinolin-2-one] |
| 105 | 11 | 6 | 26 | CNc1ncc(-c2ccc3ncc4c(c3c2)n(-c2ccc(C(C)(C)O)nc2C)c(=O)n4C)cn1 [Example 31.2, 1-[6-(1-Hydroxy-1-methyl-ethyl)-2-methyl-pyridin-3-yl]-3-methyl-8-(2-methylamino-pyrimidin-5-yl)-1,3-dihydro-imidazo[4,5-c]quinolin-2-one] |
| 401 | 20 | 15 | 44 | CCNc1ncc(-c2ccc3ncc4c(c3c2)n(-c2ccc(N3CC[C@H](O)C3)nc2C)c(=O)n4C)cn1 [Example 32.10, 8-(2-Ethylamino-pyrimidin-5-yl)-1-[6-((S)-3-hydroxy-pyrrolidin-1-yl)-2-methyl-pyridin-3-yl]-3-methyl-1,3-dihydro-imidazo[4,5-c]quinolin-2-one] |
| 62 | 10 | 70 | 27 | CNc1ncc(-c2ccc3ncc4c(c3c2)n(-c2ccc(C(F)(F)F)nc2C)c(=O)n4C)cc1COC [Example 33.6, 8-(5-Methoxymethyl-6-methylamino-pyridin-3-yl)-3-methyl-1-(2-methyl-6-trifluoromethyl-pyridin-3-yl)-1,3-dihydro-imidazo[4,5-c]quinolin-2-one] |
| 207 | 21 | 66 | 39 | Cc1nc(N2CC(F)(F)C(F)(F)C2)ccc1-n1c(=O)n(C)c2cnc3ccc(-c4cnc(N)c(CO)c4)cc3c21 [Example 35.4, 8-(6-Amino-5-hydroxymethyl-pyridin-3-yl)-3-methyl-1-[2-methyl-6-(3,3,4,4-tetrafluoro-pyrrolidin-1-yl)-pyridin-3-yl]-1,3-dihydro-imidazo[4,5-c]quinolin-2-one] |
| 22 | 7 | 60 | 12 | COCc1cc(-c2ccc3ncc4c(c3c2)n(-c2ccc(C(F)(F)F)nc2C)c(=O)n4C)cnc1N [Example 33.3, 8-(6-Amino-5-methoxymethyl-pyridin-3-yl)-3-methyl-1-(2-methyl-6-trifluoromethyl-pyridin-3-yl)-1,3-dihydro-imidazo[4,5-c]quinolin-2-one] |
| 385 | 21 | 21 | 27 | CCNc1ncc(-c2ccc3ncc4c(c3c2)n(-c2ccc(N3CC[C@H](O)C3)nc2C)c(=O)n4C)c(OC)n1 [Example 32.9, 8-(2-Ethylamino-4-methoxy-pyrimidin-5-yl)-1-[6-((S)-3-hydroxy-pyrrolidin-1-yl)-2-methyl-pyridin-3-yl]-3-methyl-1,3-dihydro-imidazo[4,5-c]quinolin-2-one] |
| 321 | 28 | 36 | 65 | CCNc1ncc(-c2ccc3ncc4c(c3c2)n(-c2ccc(F)nc2C)c(=O)n4C)cn1 [Example 7.18, 8-(2-Ethylamino-pyrimidin-5-yl)-1-(6-fluoro-2-methyl-pyridin-3-yl)-3-methyl-1,3-dihydro-imidazo[4,5-c]quinolin-2-one] |
